Entries after “also recorded” stand apart in the source; their conditions may differ. Where no end group is shown, it is not given here.
Legend:
[1] = system: Chlamydia-infected HeLa cells; assay: Inclusion integrity and vimentin cage by immunofluorescence and TEM; assay type: cell-based, C. trachomatis; settings: for Vimentin re-organization / cage around the inclusion: infected HeLa cells treated with peptide
Experimental: FIG. 9 depicts (A) CPAF inhibitory peptides block the generation of Chlamydia infectious particles. L2-infected HeLa cells were treated at 12 hpi with increasing concentration of peptides. EBs were harvested at 30 hpi and inclusion-forming units (IFU) were quantified on fresh cell monolayers. (B-D) CPAF activity is required to maintain inclusion integrity. The integrity of the inclusion was determined by assessing the immunolocalization of the inclusion membrane marker IncA (red) and Chlamydia (green) (B) and by transmission electron microscopy (C). […] (D) The percentage of vimentin-positive inclusions was determined by IF in infected cells treated with SEQ ID NO:7 and SEQ ID NO:11 (12 hpi) peptides at 24 hpi. (E) Activation of inflammatory cytokines upon inhibition of CPAF activity. Levels of IL-8 supernatants from Chlamydia infected cells treated with peptides as in (B-D) were determined at 24 hpi by ELISA.
FIG. 19 depicts HeLa cells infected with C. trachomatis L2, treated with SEQ ID NO:11 and SEQ ID NO:7, and harvested at 30 hpi. (A) Immunofluorescence microscopy via staining with an anti-vimentin antibody (“vimentin”) and an anti-Chlamydia L2 antibody (“L2”). […] (B) Cells were lysed in the presence of protease inhibitors, resolved by SDS-PAGE, and subjected to immunoblot analysis. Vimentin, RpoD (bacterial loading control), and GAPDH (host loading control) were visualized with substrate-specific antibodies).
For routine indirect immunofluorescence, HeLa cells were grown on glass coverslips and infected with Chlamydia at an MOI of 1. At the indicated times post-infection, cells were fixed with cold 3% formaldehyde, permeabilized with 0.1% Tx-100, blocked in 2% bovine serum albumin (BSA), and incubated with primary antibody followed by secondary fluorophore-conjugated anti-rabbit or anti-mouse IgG (available from Molecular Probes). Host and Chlamydial DNA were stained with 1 μM Hoechst (available from Invitrogen). […]

CPAF = CPAF (Chlamydia trachomatis serovar D, UniProt O84866); assay: HPLC-based CPAF inhibition assay with Abz-tagged model substrate (SEQ ID NO:9); assay type: biochemical, C. trachomatis; set-up: 6xHis; made in house; host or cells: E. coli BL21 (DE3), plasmid pET30b-CPAF
Sequence of CPAF (O84866 276-601): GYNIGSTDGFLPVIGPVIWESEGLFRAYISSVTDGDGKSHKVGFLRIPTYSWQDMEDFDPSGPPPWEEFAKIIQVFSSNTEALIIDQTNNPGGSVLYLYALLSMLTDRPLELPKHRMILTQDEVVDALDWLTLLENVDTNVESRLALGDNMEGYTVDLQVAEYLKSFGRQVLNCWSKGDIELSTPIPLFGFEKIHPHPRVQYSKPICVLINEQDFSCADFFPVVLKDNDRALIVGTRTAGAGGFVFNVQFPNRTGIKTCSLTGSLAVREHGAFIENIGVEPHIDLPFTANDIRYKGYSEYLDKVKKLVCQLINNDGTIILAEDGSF
Sequence of CPAF (O84866 1-234, added parts left off): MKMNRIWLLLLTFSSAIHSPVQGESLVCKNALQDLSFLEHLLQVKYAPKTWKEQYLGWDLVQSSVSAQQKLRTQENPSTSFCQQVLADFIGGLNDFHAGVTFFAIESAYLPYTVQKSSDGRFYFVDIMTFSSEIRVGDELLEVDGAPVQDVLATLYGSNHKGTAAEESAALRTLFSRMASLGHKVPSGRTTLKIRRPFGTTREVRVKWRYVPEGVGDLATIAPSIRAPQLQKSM
Experimental: FIG. 1 depicts the results of HPLC-based CPAF inhibition assays using a model CPAF substrate (SEQ ID NO:9) to compare inhibition of CPAF protease activity by SEQ ID NO:7, SEQ ID NO:2, and lactacystin. HPLC-based assays were performed in a final volume of 100 μL containing assay buffer, CPAF (62.5 nM), substrate 1 (0.5 mM), and varying concentrations of inhibitor (0-240 μM).
HPLC-based assays comprised an Abz-tagged model CPAF substrate (SEQ ID NO:9) and were performed in a final volume of 100 μL containing 150 mM NaCl, 50 mM Tris pH 7.50, purified CPAF (62.5 nM), fluorescent-tagged model CPAF substrate (0.5 mM), and varying concentrations of each candidate compound (0-240 μM). IC50 values were determined by pre-incubating CPAF with varying concentrations of candidate compound for 5 min at room temperature prior to initiation of the reaction via the addition of model CPAF substrate. Reactions were allowed to proceed for 90 seconds at 25° C., followed by removal of 80 μL aliquots and quenching by the addition of 1.2 M HCl (40 μL). Data were converted to percent activity relative to a control reaction without candidate compound and fit to the following equation using GraFit v6.0, where [I] is the concentration of candidate compound and s is a slope factor: […]

[2] = system: Chlamydia-infected HeLa cells; assay: Apoptosis markers (AnnexinV staining, Caspase-3 cleavage) in infected HeLa cells; assay type: cell-based, C. trachomatis; settings: peptide 12.5 μM at 12 hpi
Experimental: FIG. 11 depicts (A) that inhibiting CPAF activity induces host cell death. The indicated peptides (anti-CPAF peptide refers to SEQ ID NO:7) were added to infected cells 12 hpi and the percentage of infected cells with condensed nuclei was quantified at the indicated times. (B-C) Inhibition of CPAF activity induces apoptosis. Infected cells were treated with peptides and the percentage of AnnexinV-FITC positive (propidium iodide (PI) negative) was determined by flow cytometry (B). In parallel samples, cleavage of Caspase-3, a hallmark of apoptosome activation, was monitored by immunoblot analysis. Actin and MOMP are host and bacterial loading controls respectively. […] Infected cells were treated as in (A) in the presence or absence of ZVAD-FMK, labeled with PI and analyzed by flow cytometry. […]
Subsequent experiments tested whether CPAF inhibition led to the onset of apoptosis in infected cells. […] Apoptotic cells were identified with an AnnexinV-FLOUS Staining Kit (available from Roche) and activation of Caspase-1 was determined by labeling active Caspase-1 with a Carboxyfluorescein FLICA Detection Kit (available from Immunochemistry) and analyzed in a FACScanner (available from BD Biosciences). […] Consistent with result, Caspase-3 cleavage, another characteristic of apoptotic cell death, was not detected (FIG. 11C).

Substance: SLFYSPMVPHFWAELRNHYATSGLKRRRRRRRRR-NH2 [SEQ ID NO:7]
- Vimentin re-organization / cage around the inclusion [1]: loss of vimentin re-organization around the inclusion; also recorded: increased disorder in the position of the vimentin cage
- Vimentin re-organization / cage around the inclusion ([1]; listed as peptide 4): loss of the vimentin cage
- Inclusion structure integrity (IncA, Cap1 localisation) ([1]; prolonged treatment (>8 h)): collapse of the inclusion structure
- IC50 (CPAF; CPAF 62.5 nM, substrate SEQ ID NO:9 0.5 mM, inhibitor 0-240 μM): 50 ± 7 nM
- CPAF inhibition relative to SEQ ID NO:2 (CPAF; HPLC-based assay, greater than SEQ ID NO:2): about 30 fold
- CPAF inhibition relative to lactacystin (CPAF; HPLC-based assay, greater than lactacystin): about 200 fold
- AnnexinV staining of infected cells [2]: did not stain for AnnexinV
- Caspase-3 cleavage in infected cells ([2]; immunoblot): not detected

From patent US8617563B2, “Antichlamydial agents” (Duke University, priority 2011, dated 2013)
